Reference: patent US20250066344A1 (BRISTOL-MYERS SQUIBB COMPANY, priority 2021, published 2025)

Biological target: T1, human RXFP1 (Homo sapiens, UniProt Q9HBX9)
T1 construct: expressed in transfected cells
T1 sequence (Q9HBX9 1-757): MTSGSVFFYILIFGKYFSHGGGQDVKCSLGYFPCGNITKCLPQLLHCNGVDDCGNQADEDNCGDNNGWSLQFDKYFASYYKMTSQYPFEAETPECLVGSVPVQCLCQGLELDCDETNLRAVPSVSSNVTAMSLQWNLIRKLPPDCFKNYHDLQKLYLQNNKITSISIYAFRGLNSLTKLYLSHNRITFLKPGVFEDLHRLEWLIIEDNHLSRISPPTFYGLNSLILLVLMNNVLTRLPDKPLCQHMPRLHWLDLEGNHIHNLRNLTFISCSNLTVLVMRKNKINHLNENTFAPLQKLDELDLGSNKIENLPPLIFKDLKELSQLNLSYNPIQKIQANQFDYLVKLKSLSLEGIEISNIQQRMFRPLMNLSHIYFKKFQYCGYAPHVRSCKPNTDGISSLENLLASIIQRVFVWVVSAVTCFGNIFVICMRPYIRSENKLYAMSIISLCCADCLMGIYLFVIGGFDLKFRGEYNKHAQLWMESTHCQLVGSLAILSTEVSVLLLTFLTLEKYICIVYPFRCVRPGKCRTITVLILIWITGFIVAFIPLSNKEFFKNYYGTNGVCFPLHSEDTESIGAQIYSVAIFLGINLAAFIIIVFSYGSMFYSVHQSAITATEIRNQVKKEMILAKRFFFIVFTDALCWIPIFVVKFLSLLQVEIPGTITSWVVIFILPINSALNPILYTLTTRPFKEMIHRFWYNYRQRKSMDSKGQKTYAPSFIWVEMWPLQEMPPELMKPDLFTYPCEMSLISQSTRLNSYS
Assay: RXFP1 cyclic adenosine monophosphate (cAMP) assay, hRXFP1 HEK293
Format: cell-based
Conditions: HEK293 cells stably expressing human RXFP1; 30 min at room temperature; HTRF cAMP
Method: RXFP1 Cyclic Adenosine Monophosphate (cAMP) Assays. Human embryonic kidney cells 293 (HEK293) cells and HEK293 cells stably expressing human RXFP1, were cultured in MEM medium supplemented with 10% qualified FBS, and 300 μg/ml hygromycin (Life Technologies). Cells were dissociated and suspended in assay buffer. The assay buffer was HBSS buffer (with calcium and magnesium) containing 20 mM HEPES, 0.05% BSA, and 0.5 mM IBMX. Cells (3000 cells per well, except 1500 cell per well for HEK293 cells stably expressing human RXFP1) were added to 384-well Proxiplates (Perkin-Elmer). Cells were immediately treated with test compounds in DMSO (2% final) at final concentrations in the range of 0.010 nM to 50 μM. Cells were incubated for 30 min at room temperature. The level of intracellular cAMP was determined using the HTRF HiRange cAMP assay reagent kit (Cisbio) according to manufacturer's instructions. Solutions of cryptate conjugated anti-cAMP and d2 fluorophore-labelled cAMP were made in a supplied lysis buffer separately. Upon completion of the reaction, the cells were lysed with equal volume of the d2-cAMP solution and anti-cAMP solution. After a 1 h room temperature incubation, time-resolved fluorescence intensity was measured using the Envision (Perkin-Elmer) at 400 nm excitation and dual emission at 590 nm and 665 nm. A calibration curve was constructed with an external cAMP standard at concentrations ranging from 2.7 μM to 0.1 μM by plotting the fluorescent intensity ratio from 665 nm emission to the intensity from the 590 nm emission against cAMP concentrations. The potency and activity of a compound to […] cAMP production was then determined by fitting to a 4-parametric logistic equation from a plot of cAMP level versus compound concentrations.
The examples disclosed below were tested in the human RXFP1 (hRXFP) HEK293 cAMP assay described above and found to have agonist activity. Tables 1-3, lists EC50 values in the hRXFP1 HEK293 cAMP assay measured for the examples.
Table A lists EC50 values in the hRXFP1 HEK293 cAMP assay measured for the examples.

Structure (SMILES)	EC50 [nM]
COc1ccc(C(=O)N2CCC3(CC2)COC3)cc1C(=O)Nc1cc2c(cc1C(=O)Nc1ccc(F)c(C(F)(F)F)c1)OC(F)(F)O2 [Example 42, 2,2-difluoro-N-(4-fluoro-3-(trifluoromethyl)phenyl)-6-(2-methoxy-5-(2-oxa-7-azaspiro[3.5]nonane-7-carbonyl)benzamido) benzo[d][1,3]dioxole-5-carboxamide]	1200
O=C(Nc1cc2c(cc1C(=O)Nc1ccc(F)c(C(F)(F)F)c1)OC(F)(F)O2)c1csc(C2=NOC3COCC23)n1 (single isomer, unassigned) [Example 94, N-(2,2-difluoro-6-((4-fluoro-3-(trifluoromethyl)phenyl)carbamoyl)benzo[d][1,3]dioxol-5-yl)-2-(3a,4,6,6a-tetrahydrofuro[3,4-d]isoxazol-3-yl)thiazole-4-carboxamide]	1400
COc1ccc(C2=NOC3CN(C(=O)CO)CC23)cc1C(=O)Nc1cc2nc(C)sc2cc1C(=O)Nc1ccc(F)c(C(F)(F)F)c1 (stereo not drawn) [Example 5, N-(4-fluoro-3-(trifluorometh-yl)phenyl)-5-(5-(5-(2-hy-droxyacetyl)-3a,5,6,6a-tetra-hydro-4H-pyr-rolo[3,4-d]isoxazol-3-yl)-2-methoxy-benzamido)-2-methylbenzo [d]thiazole-6-carboxamide]	16
COc1ccc(C2CC3(CNC3)C2)cc1C(=O)Nc1cc2c(cc1C(=O)Nc1ccc(F)c(C(F)(F)F)c1)OC(F)(F)O2 [Example 92, 2,2-difluoro-N-(4-fluoro-3-(trifluoromethyl)phenyl)-6-(2-methoxy-5-(2-azaspiro[3.3]heptan-6-yl)benzamido)benzo[d] [1,3]dioxole-5-carboxamide]	2640
COc1ccc(C2=NOC3CC(CO)CC23)cc1C(=O)Nc1cc2nc(C)sc2cc1C(=O)NC1CCCC1 (stereo not drawn) [Example 19, N-cyclopent-yl-5-(5-(5-(hydroxymeth-yl)-3a,5,6,6a-tetrahydro-4H-cyclopenta[d]isoxazol-3-yl)-2-methoxy-benzamido)-2-methylbenzo [d]thiazole-6-carboxamide]	1000
COc1ccc(C2=NOC3COCC23)cc1C(=O)Nc1cc2nc(C)sc2cc1C(=O)Nc1ccc(F)c(C(F)(F)F)c1 (single isomer, unassigned) [Example 2, N-(4-fluoro-3-(trifluoromethyl)phenyl)-5-(2-methoxy-5-(3a,4,6,6a-tetrahydrofuro[3,4-d]isoxazol-3-yl)benzamido)-2-methylbenzo[d]thiazole-6-carboxamide]	1000
COc1ccc(N2CC(CN)CC2=O)cc1C(=O)Nc1cc2nc(C)sc2cc1C(=O)Nc1ccc(F)c(C(F)(F)F)c1 (stereo not drawn) [Example 21, 5-(5-(4-(ami-nomethyl)-2-oxopyrrolidin-1-yl)-2-meth-oxybenzami-do)-N-(4-fluoro-3-(tri-fluoromethyl)-phenyl)-2-methylbenzo [d]thiazole-6-carboxamide]	4100
COc1ccc(-c2cnc3n2CCN(CCO)C3)cc1C(=O)Nc1cc2c(cc1C(=O)Nc1ccc(F)c(C(F)(F)F)c1)OC(F)(F)O2 [Example 80, 2,2-difluoro-N-(4-fluoro-3-(trifluoromethyl)phenyl)-6-(5-(7-(2-hydroxyethyl)-5,6,7,8-tetrahydroimidazo[1,2-a]pyrazin-3-yl)-2-methoxybenzamido) benzo[d][1,3]dioxole-5-carboxamide]	260
COc1ccc(C2=NOC3C4CCC(C4)C23)cc1C(=O)Nc1cc2nc(C)sc2cc1C(=O)Nc1ccc(F)c(C(F)(F)F)c1 (stereo not drawn) [Example 10, N-(4-fluoro-3-(trifluorometh-yl)phenyl)-5-(5-(3a,4,5,6,7,7a-hexahydro-4,7-methano-benzo[d]isox-azol-3-yl)-2-methoxybenz-amido)-2-methylbenzo [d]thiazole-6-carboxamide]	130
COc1ccc(C2=NOC3CC(O)CC23)cc1C(=O)Nc1cc2nc(C)sc2cc1C(=O)Nc1ccc(F)c(C(F)(F)F)c1 (single isomer, unassigned) [Example 27, N-(4-fluoro-3-(trifluorometh-yl)phenyl)-5-(5-(5-hydroxy-3a,5,6,6a-tetra-hydro-4H-cyclopenta[d]isoxazol-3-yl)-2-methoxy-benzamido)-2-methylbenzo [d]thiazole-6-carboxamide]	2200
COc1ccc(-c2cc([C@H](C)O)on2)cc1C(=O)Nc1cc2c(cc1C(=O)Nc1ccc(F)c(C(F)(F)F)c1)OC(F)(F)O2 [Example 73, (S)-2,2-difluoro-N-(4-fluoro-3-(trifluoromethyl)phenyl)-6-(5-(5-(1-hydroxyethyl)isoxazol-3-yl)-2-methoxybenzamido) benzo[d][1,3]dioxole-5-carboxamide]	96
COc1ccc(-c2nc(N3CCOCC3)no2)cc1C(=O)Nc1cc2c(cc1C(=O)Nc1ccc(F)c(C(F)(F)F)c1)OC(F)(F)O2 [Example 87, 2,2-difluoro-N-(4-fluoro-3-(trifluoromethyl)phenyl)-6-(2-methoxy-5-(3-morpholino-1,2,4-oxadiazol-5-yl)benzamido)benzo[d] [1,3]dioxole-5-carboxamide]	161
COc1ccc(C2CCCN(S(C)(=O)=O)C2)cc1C(=O)Nc1cc2c(cc1C(=O)Nc1ccc(F)c(C(F)(F)F)c1)OC(F)(F)O2 (single isomer, unassigned) [Example 49, 2,2-difluoro-N-(4-fluoro-3-(trifluoromethyl)phenyl)-6-(2-methoxy-5-(1-(methylsulfonyl)piperidin-3-yl)benzamido)benzo[d][1,3]dioxole-5-carboxamide]	154
COc1ccc(C(=O)N2CC(C(C)(C)O)C2)cc1C(=O)Nc1cc2c(cc1C(=O)Nc1ccc(F)c(C(F)(F)F)c1)OC(F)(F)O2 [Example 38, 2,2-difluoro-N-(4-fluoro-3-(trifluoromethyl)phenyl)-6-(5-(3-(2-hydroxypropan-2-yl)azetidine-1-carbonyl)-2-methoxybenzamido) benzo[d][1,3]dioxole-5-carboxamide]	84
COc1ccc(C2=NOC3(CCN(C(=O)CO)CC3)C2)cc1C(=O)Nc1cc2c(cc1C(=O)Nc1ccc(F)c(C(F)(F)F)c1)OC(F)(F)O2 [Example 68, 2,2-difluoro-N-(4-fluoro-3-(trifluoromethyl)phenyl)-6-(5-(8-(2-hydroxyacetyl)-1-oxa-2,8-diazaspiro[4.5]dec-2-en-3-yl)-2-methoxybenzamido) benzo[d][1,3]dioxole-5-carboxamide]	173
COc1ccc(-c2noc(C(C)(C)O)n2)cc1C(=O)Nc1cc2c(cc1C(=O)Nc1ccc(F)c(C(F)(F)F)c1)OC(F)(F)O2 [Example 84, 2,2-difluoro-N-(4-fluoro-3-(trifluoromethyl)phenyl)-6-(5-(5-(2-hydroxypropan-2-yl)-1,2,4-oxadiazol-3-yl)-2-methoxybenzamido) benzo[d][1,3]dioxole-5-carboxamide]	485
COc1ccc(C2CCN(C(=O)C(C)(C)O)C2)cc1C(=O)Nc1cc2c(cc1C(=O)Nc1ccc(F)c(C(F)(F)F)c1)OC(F)(F)O2 (single isomer, unassigned) [Example 46, 2,2-difluoro-N-(4-fluoro-3-(trifluoromethyl)phenyl)-6-(5-(1-(2-hydroxy-2-methylpropanoyl)pyrrolidin-3-yl)-2-methoxybenzamido)benzo[d][1,3]dioxole-5-carboxamide]	49
COc1ccc(C2=NOC(CO)C2)cc1C(=O)Nc1cc2c(cc1C(=O)Nc1ccc(F)c(C(F)(F)F)c1)OC(F)(F)O2 (single isomer, unassigned) [Example 72, 2,2-difluoro-N-(4-fluoro-3-(trifluoromethyl)phenyl)-6-(5-(5-(hydroxymethyl)-4,5-dihydroisoxazol-3-yl)-2-methoxybenzamido) benzo[d][1,3]dioxole-5-carboxamide]	65
